ChEMBL document CHEMBL3046170, “Docking, synthesis, and pharmacological investigation of novel substituted thiazole derivatives as non-carboxylic, anti-inflammatory, and analgesic agents” (Med Chem Res, 2013)

What was measured:
Mus musculus = assay: Analgesic activity in Albino Mus musculus (mouse) assessed as inhibition of acetic acid-induced abdominal writhings at 25 mg/kg, po administered 50 min prior to acetic acid injection measured after 10 min; assay type: functional; conditions: Abdomen
Rattus norvegicus [1] = assay: Anti-inflammatory activity in Wistar albino Rattus norvegicus (rat) assessed as inhibition of carrageenan-induced paw edema at 25 mg/kg, po administered 1 hr prior to carrageenan-challenge measured after 3 hr by plethysmometer; assay type: functional
Rattus norvegicus [2] = assay: Anti-inflammatory activity in carrageenan-induced paw edema Wistar albino Rattus norvegicus (rat) model assessed as change in paw volume at 25 mg/kg, po administered 1 hr prior to carrageenan-challenge measured after 3 hr by plethysmometer (reference value: 1.200 +/-0.08 ml); assay type: functional
Rattus norvegicus [3] = assay: Anti-inflammatory activity in carrageenan-induced paw edema Wistar albino Rattus norvegicus (rat) model assessed as change in paw volume at 25 mg/kg, po administered 1 hr prior to carrageenan-challenge measured after 1 hr by plethysmometer (reference value: 0.900 +/-0.03 ml); assay type: functional
Rattus norvegicus [4] = assay: Anti-inflammatory activity in Wistar albino Rattus norvegicus (rat) assessed as inhibition of carrageenan-induced paw edema at 25 mg/kg, po administered 1 hr prior to carrageenan-challenge measured after 1 hr by plethysmometer; assay type: functional
Rattus norvegicus [5] = assay: Anti-inflammatory activity in Wistar albino Rattus norvegicus (rat) assessed as inhibition of carrageenan-induced paw edema at 25 mg/kg, po administered 1 hr prior to carrageenan-challenge measured after 2 hr by plethysmometer; assay type: functional
Rattus norvegicus [6] = assay: Anti-inflammatory activity in carrageenan-induced paw edema Wistar albino Rattus norvegicus (rat) model assessed as change in paw volume at 25 mg/kg, po administered 1 hr prior to carrageenan-challenge measured after 2 hr by plethysmometer (reference value: 1.110 +/-0.07 ml); assay type: functional
Rattus norvegicus [7] = assay: Gastrointestinal toxicity in Wistar albino Rattus norvegicus (rat) stress model assessed as ulcerogenicity index at 25 mg/kg/day, po for 4 days measured on day 5; assay type: organism-based; set-up: route oral; conditions: in vivo, 96 h
Rattus norvegicus [8] = assay: Gastrointestinal toxicity in Wistar albino Rattus norvegicus (rat) stress model assessed as ulcerogenicity index at 25 mg/kg/day, po for 4 days measured on day 5 relative to diclofenac sodium; assay type: organism-based; set-up: route oral; conditions: in vivo, 96 h

| SMILES | inhibition in vivo at 25 mg/kg (Mus musculus) | inhibition in vivo at 25 mg/kg (Rattus norvegicus [1]) | Activity (Rattus norvegicus [2]) | Activity (Rattus norvegicus [3]) | inhibition in vivo at 25 mg/kg (Rattus norvegicus [4]) | inhibition in vivo at 25 mg/kg (Rattus norvegicus [5]) | Activity (Rattus norvegicus [6]) | UI (Rattus norvegicus [7]) | Activity (Rattus norvegicus [8]) |
| --- | --- | --- | --- | --- | --- | --- | --- | --- | --- |
| c1ccc(-c2nc(-c3nnco3)cs2)cc1 | 18.1% | 27% | 1.052 mL | 0.842 mL | 24.2% | 31.5% | 0.962 mL | – | – |
| CN(C)CCSc1nnc(-c2csc(-c3ccccc3)n2)o1 | 18.6% | 25.9% | 0.999 mL | 0.787 mL | 22.7% | 31.1% | 0.904 mL | – | – |
| c1ccc(-c2nc(-c3nnn[nH]3)cs2)cc1 | 16.5% | 40.4% | 0.935 mL | 0.825 mL | 30.8% | 38.1% | 0.885 mL | – | – |
| S=c1oc(-c2csc(-c3ccccc3)n2)nn1CN1CCCCC1 | 58.7% | 55.5% | 0.862 mL | 0.764 mL | 44.8% | 57.4% | 0.812 mL | 0.54 | 10% |
| O=c1[nH]nc(-c2csc(-c3ccccc3)n2)o1 | 42.2% | 48.4% | 0.935 mL | 0.825 mL | 34.8% | 49.1% | 0.885 mL | 0.44 | 10% |
| CCOC(=O)c1cnn(C(=O)c2csc(-c3ccccc3)n2)c1N | 61.2% | 60.3% | 0.79 mL | 0.721 mL | 45.1% | 63% | 0.74 mL | 0.6 | 10% |
| Nc1nnc(-c2csc(-c3ccccc3)n2)o1 | 20.3% | 21.4% | 1.105 mL | 0.88 mL | 18.2% | 25.5% | 1.012 mL | – | – |
| O=C([O-])Cc1ccccc1Nc1c(Cl)cccc1Cl.[Na+] [DICLOFENAC SODIUM] | 58% | 54.9% | 0.85 mL | 0.762 mL | 40.6% | 56.7% | 0.8 mL | 4.67 | – |
| Nn1c(-c2csc(-c3ccccc3)n2)n[nH]c1=O | 19.7% | 19% | 1.074 mL | 0.844 mL | 15.2% | 23.1% | 0.979 mL | – | – |
| Sc1nnc(-c2csc(-c3ccccc3)n2)o1 | 58.1% | 50.8% | 0.84 mL | 0.735 mL | 37.9% | 53.8% | 0.78 mL | 0.52 | 10% |
| Nc1cc(-c2ccccc2)nn1C(=O)c1csc(-c2ccccc2)n1 | 60.1% | 55.2% | 0.942 mL | 0.851 mL | 42.1% | 60.5% | 0.873 mL | 0.62 | 10% |
| c1ccc(-c2nc(-c3nnc(SCCN4CCOCC4)o3)cs2)cc1 | 21.8% | 21.6% | 1.076 mL | 0.864 mL | 14.5% | 23.5% | 0.995 mL | – | – |
